Laboratory results published in patent US12624068B2, “Exon skipping by peptide nucleic acid derivatives” (OliPass Corporation, priority 2016, dated 2026).
[C(1O2)] = modified PNA monomer acting as cytosine, C(pOq) type, 1O2; [A(5)] = modified PNA monomer acting as adenine, A(p) type, p=5; [A(6)] = modified PNA monomer acting as adenine, A(p) type, p=6; [G(5)] = modified PNA monomer acting as guanine, G(p) type, p=5; {Fethoc} = N-terminal Fethoc cap; {NH2} = C-terminal amide

How the values were obtained:
[1] = test system: full-length SNAP25 mRNA; test: SNAP25 nested qPCR in PC12 cells; type: cell-based, rat
Procedure: [Cell Culture & ASO Treatment] PC12 cells grown in 60 mm culture dish containing 5 mL culture medium were treated with “SNAP-ASO 3” at 0 (negative control), 10, 100 or 1,000 zM. (2 culture dishes per ASO concentration) [RNA Extraction & cDNA Synthesis by One-step RT-PCR] Following an incubation with “SNAP-ASO 3” for 42 hours, the cells were treated 100 μg/mL cycloheximide for another 6 hours to freeze the ribosomal translation. Then total RNA was extracted from cells using “Universal RNA Extraction Kit” (Cat. Number 9767, Takara) according to the manufacturer's instructions. […] NO: 130); and SNAP-exon 14_reverse: (5'→3') […] [Nested qPCR Amplification] […] NO: 132); and SNAP-exon 8q_reverse: (5'→3') […] The qPCR reaction was followed with a Taqman probe of [(5'→3') 5,6-[…] NO: 134)] targeting the junction of exon 7 and exon 8 in order to quantify the full-length SNAP25 mRNA.

[2] = test system: full-length human SNAP25 mRNA; test: SNAP25 qPCR in SiMa cells; type: cell-based; settings: 100 aM
Procedure: [Cell Culture & ASO Treatment] SiMa cells were grown in 60 mm culture dish containing 5 mL culture medium, and were treated with “SNAP-ASO 3” at 0 zM (negative control), 1 zM, 10 zM, 100 zM or 1 aM, 10 aM, or 100 aM. (2 culture dishes per ASO concentration) [RNA Extraction & cDNA Synthesis] Total RNA was extracted from cells using “RNeasy Mini Kit” (Cat. Number 74106, Qiagen) according to the manufacturer's instructions. […] [qPCR Amplification] The PCR reactions were monitored with a Taqman probe [(5' 3') 56-[…] NO: 137)] targeting the junction of exon 6 and exon 7 against a set of exon-specific primers [SNAP-exon 6_forward: (5'→3') […] NO: 138); and SNAP-exon 8_reverse(2): (5'→3') […] NO: 139)].

[3] = test system: 10-mer complementary DNA; test: Tm between PNA derivatives and 10-mer complementary DNA (N- or C-terminal); type: binding; settings: uncorrected
How it was run: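 Tm read by UV at 260 nm for duplexes formed by annealing (90 °C for a minute, slow cooling to ambient) of equimolar 4 μM PNA and complementary 10-mer DNA targeting N- or C-terminal, in 10 mM sodium phosphate, 100 mM NaCl, pH 7.16.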

[4] = test system: rat SNAP25 pre-mRNA; test: SNAP25 nested PCR for exon skipping in PC12 cells; type: cell-based
Procedure: PC12 cells were maintained in RPMI 1640 medium supplemented with 5% FBS, 10% horse serum, 1% streptomycin/penicillin, 1% L-glutamine, and 1% sodium pyruvate under 5% CO2 atmosphere at 37° C. Cells grown in 60 mm culture dish containing 5 mL culture medium were treated with “SNAP-ASO 3” at 0 (negative control), 10, 100 or 1,000 zM. [RNA Extraction & cDNA Synthesis by One-step PCR] Following an incubation with “SNAP-ASO 3” for 42 hours, the cells were treated with 100 μg/mL cycloheximide for another 6 hours in order to freeze the ribosomal translation. Then total RNA was extracted using “Universal RNA Extraction Kit” (Cat. Number 9767, Takara) according to the manufacturer's instructions. […] NO: 126); and SNAP-exon 14_reverse: (5'→3') […] [Nested PCR Amplification] […] NO: 128); SNAP-exon 14n_reverse: (5'→3') […] [Identification of Exon Skipping Products] The PCR products were subjected to electrophoretic separation on a 2% agarose gel. The bands of target size were collected and analyzed by Sanger Sequencing.

[5] = test system: full-length dystrophin; test: Dystrophin western blot in triceps of mdx mice; type: in vivo; settings: Week 48
Procedure: [Full-length Dystrophin Expression in Triceps by Western Blot] Following homogenization at liquid nitrogen temperature, muscle (triceps) samples were subjected to lysis in RIPA buffer supplemented with 1% SDS. The protein concentration in each lysate was quantified by BCA assay against the BSA standard. […] of protein of each lysate was subjected to electrophoretic separation on an 8% PAGE gel. Then the PVDF membrane was probed with a C-terminal targeting dystrophin antibody (Cat. Number ab154168, Abcam).

[6] = test system: mdx mice; test: Walking distance on tread mill in mdx mice; type: in vivo, mouse; settings: first 30 weeks, injection solutions without Tween 80
Procedure: “DMD-ASO 2” was chronically administered to mdx mice to evaluate its ability to improve muscle function by the walking distance on tread mill, and to inhibit the muscle degradation by the serum levels of creatine kinase (CK) and myoglobin.
[Animals & Grouping] Male mdx mice (6 weeks old) were randomly assigned to three groups of the mdx negative control (no ASO treatment), “DMD-ASO 2” 10 pmole/Kg, and “DMD-ASO 2” […] based on the body weight. (N=16 per group) 12 male C57BL/6 mice (6 weeks old) were adopted as the wild type (WT) negative control group.
[Injection Solutions & ASO Treatment] An aqueous mother stock solution of “DMD-ASO 2” was diluted either in PBS or in PBS supplemented with 0.1% Tween 80 to prepare injection solutions of […] “DMD-ASO 2” for 10 pmole/Kg and 30 pmole/Kg “DMD-ASO 2”, respectively. Supplementation of PBS injection solution with 0.1% Tween 80 was considered to be necessary to prevent the ASO molecules from sticking to plastic injection vials, pipette tips, and syringes.
[Walking Distance on Tread Mill] During the first 30 weeks post grouping, the animals were administered with the injection solutions without Tween 80 2× per week at 2 mL/Kg. Starting from Week 7, the animals were subjected to walking on a tread mill (Model #LE8710, PanLab) on a weekly basis. […]

[7] = test system: serum myoglobin; test: Serum myoglobin level in mdx mice; type: in vivo
Procedure: (§1) [Terminal Sacrifice] In Week 48, the animals were subjected to terminal sacrifice for blood sampling. The blood samples were analyzed for the serum level of CK (Creatine Kinase Activity Assay Kit, Cat. Number ab155901, Abcam) and myoglobin (Myoglobin ELISA Kit, Cat. Number ab210965, Abcam) to assess the degree of muscle degradation according to the manufacturer's instructions. Muscle tissues were analyzed by western blot for the full-length dystrophin.
(§2) [Terminal Sacrifice] All the survived animals were sacrificed for blood sampling in Week 66 post the grouping. The blood samples were subjected to ELISA assays for serum creatine kinase (CK) and serum myoglobin as described in “DMD Example 6”.

[8] = test system: serum creatine kinase (CK); test: Serum creatine kinase level in mdx mice; type: in vivo; settings: Week 48
Procedure: as §1, §2

[9] = test system: mdx mice; test: Unscheduled death, sacrifice or lymphoma in chronically treated mdx mice; type: in vivo, mouse; settings: DMD-ASO 1 50 pmole/Kg, DMD-ASO 2 or DMD-ASO 6 10 pmole/Kg, subcutaneous 2× per week, 66 weeks
From the text: [Grouping & ASO Treatment] Male mdx mice (7 weeks old) were randomly assigned to 4 groups of 0 (mdx negative control), 10, 50, and 200 pmole/Kg “DMD-ASO 1” based on individual grip strength scores by grip test. (N=12 per group) A satellite group of 12 male C57BL/6 mice (7 weeks old) was included in this study as the wild type negative control group for the full-length dystrophin expression level.
The 50 and 200 pmole/Kg group subcutaneously received “DMD-ASO 1” as dissolved in PBS, 2× per week until the final sacrifice in Week 43. In the meantime, the 10 pmole/Kg group subcutaneously received “DMD-ASO 1” initially 2× per week during Week 0 to 8, and 3× per week afterwards to increase the ASO exposure.
[Miscellaneous Findings] There were three cases of unscheduled sacrifice or death (Weeks 26, 39 and 43) in the mdx negative control group due to a large mass of muscular lymphoma developed most likely by chronic muscular inflammation.
“DMD-ASO 1”, “DMD-ASO 2” and “DMD-ASO 6” were evaluated for their physiological effects in male mdx mice by long term subcutaneous administration. In this evaluation the animals were not subjected to physical tests requiring muscular stress in order to keep the transcription of the dystrophin gene undisturbed by excessive muscular stimulation.
[Animals & Grouping] Male mdx mice (6 weeks old) were randomly assigned to 4 groups of the mdx negative control (no ASO treatment), “DMD-ASO 1” 50 pmole/Kg, “DMD-ASO 2” […], and “DMD-ASO 6” […] based on the body weight. (N=12-13 per group) 12 male C57BL/6 mice (6 weeks old) were adopted as the wild type (WT) negative control group.
[Injection Solutions & ASO Treatment] Aqueous mother stock solutions of the ASOs were serially diluted in PBS to prepare the injection solutions of 25 nM “DMD-ASO 1” for 50 pmole/Kg “DMD-ASO 1”, 5 nM “DMD-ASO 2” for “DMD-ASO 2” 10 pmole/Kg, and 5 nM “DMD-ASO 6” for “DMD-ASO 6” 10 pmole/Kg. The animals were subcutaneously administered with the injection solutions at 2 mL/Kg, 2× per week.

Substance	decrease of full-length SNAP25 mRNA level (qPCR) ([1]; PC12 cells, 10 zM) [%]	decrease of full-length SNAP25 mRNA level (qPCR) ([1]; PC12 cells, 100 zM) [%]	decrease of full-length SNAP25 mRNA level (qPCR) ([1]; PC12 cells, 1,000 zM)	inhibition of full-length human SNAP25 mRNA level (qPCR) [2] [%]	Tm Value, 10-mer DNA against C-Terminal [3] [°C]	Tm Value, 10-mer DNA against N-Terminal [3] [°C]	intensity of the full-length SNAP25 mRNA by nested PCR ([4]; PC12 cells, 10, 100 or 1,000 zM)	SNAP25 exon skipping by nested PCR ([4]; PC12 cells, 10 zM, 42 hours then cycloheximide 6 hours)	130K dystrophin band intensity (western blot, triceps) ([5]; 10 pmole/Kg)	117K dystrophin band (western blot, triceps) ([5]; 10 and 30 pmole/Kg)	walking distance on tread mill compared to the mdx negative control group [6]	serum myoglobin level smaller than the mdx negative control group by ([7]; 10 pmole/Kg, Week 48) [%]	serum myoglobin level smaller than the mdx negative control group by ([7]; 30 pmole/Kg, Week 48) [%]	serum myoglobin level smaller than the mdx negative control group by ([7]; DMD-ASO 1 50 pmole/Kg, DMD-ASO 2 or DMD-ASO 6 10 pmole/Kg, 2× per week, Week 66) [%]	serum CK level smaller than the mdx negative control group by ([8]; 10 pmole/Kg) [%]	serum CK level smaller than the mdx negative control group by ([8]; 30 pmole/Kg) [%]	premature deaths (unscheduled death or sacrifice) [9]
Fethoc-TG(5)T-TA(6)C-C(1O2)CT-GG(5)G-A(5)T-NH2 (antisense TGTTACCCTGGGAT; all peptide nucleic acid (PNA), [G(5)] at 2, 11, [A(6)] at 5, [C(1O2)] at 7, [A(5)] at 13, 5' {Fethoc}, 3' {NH2}; peptide nucleic acid written N to C) [SNAP-ASO 3]	~50	20	slightly higher than the level of the cells without ASO treatment	40	88.7	77.3	decreased most in the cells treated with 10 zM	yielded a faint PCR band assignable to the skipping of exons 5-7									
Fethoc-TTG(6)CA(5)G-AG(6)C-C(1O2)TC-AA(5)A-A(5)T-NH2 (antisense TTGCAGAGCCTCAAAAT; Fethoc N-cap, C-terminal amide, chemistry not fully specified) [DMD-ASO 2]									considerably stronger	markedly stronger	failed to show any significant improvements	67	58	49	58	38	one death in Week 56 and another in Week 62
